Measurements published in ChEMBL document CHEMBL5724696, “Autophagy assay results for EUbOPEN Chemogenomics Library” (2024).
Several values for one entry are separate records, joined by “and”; a condition that tells them apart may be missing. Equal entries are not always repeated.

Legend:
Type in all cases: functional, Homo sapiens
U2OS [1] = assay: (§1) Here: values are normalized to the negative (DMSO; defined as 0% autophagy induction) and positive (250nM Torin1; mTOR inhibitor; defined as maximal inducer of autophagy = 100%) control compounds and represented as % of autophagy induction. […] The impact of autophagy induction on cells is complex and depends on the affected target. As such, the magnitude of a phenotype may not be equally mirrored in the %-value of autophagy induction and vice versa. The dynamics of the induction may indicate the mode of activation: e.g. activation via phosphorylation or a signaling cascade may occur fast, while activation via transcription factors may take considerably longer. […] Of note, treatment concentrations may be sub-optimal for specific compounds, leading to false negative annotations.; conditions: Culturing Media DMEM, 1 % Penicillin/Streptomycin, 10% Fetal bovin serum Add-On: No, Screening Media Control DMEM, Screening Media Samples DMEM
TERT-RPE1 = assay: as §1; conditions: Culturing Media DMEM/F12 (1:1), 1 % Penicillin/Streptomycin, 10% Fetal bovin serum Add-On: No, Screening Media Control DMEM/F12 (1:1), Screening Media Samples DMEM/F12 (1:1)
U2OS [2] = assay: as §1; conditions: Culturing Media DMEM, 1 % Penicillin/Streptomycin, 10% Fetal bovin serum Add-On: No, Screening Media Control DMEM, Screening Media Samples DMEM; remark: listed apart in the source
[3] = Compound Concentration 0.5 uM, Timepoint 12 hours
[4] = Compound Concentration 0.5 uM, Timepoint 24 hours
[5] = Compound Concentration 0.5 uM, Timepoint 36 hours
[6] = Compound Concentration 0.5 uM, Timepoint 60 hours
[7] = Compound Concentration 2 uM, Timepoint 12 hours
[8] = Compound Concentration 2 uM, Timepoint 24 hours
[9] = Compound Concentration 2 uM, Timepoint 36 hours
[10] = Compound Concentration 2 uM, Timepoint 60 hours
[11] = Compound Concentration 10 uM, Timepoint 12 hours
[12] = Compound Concentration 10 uM, Timepoint 24 hours
[13] = Compound Concentration 10 uM, Timepoint 36 hours
[14] = Compound Concentration 10 uM, Timepoint 60 hours

Compound	autophagy induction (U2OS [1]; [3])	autophagy induction (U2OS [1]; [4])	autophagy induction (U2OS [1]; [5])	autophagy induction (U2OS [1]; [6])	autophagy induction (U2OS [1]; [7])	autophagy induction (U2OS [1]; [8])	autophagy induction (U2OS [1]; [9])	autophagy induction (U2OS [1]; [10])	autophagy induction (U2OS [1]; [11])	autophagy induction (U2OS [1]; [12])	autophagy induction (U2OS [1]; [13])	autophagy induction (U2OS [1]; [14])	autophagy induction (U2OS [2]; [3])	autophagy induction (U2OS [2]; [4])	autophagy induction (U2OS [2]; [5])	autophagy induction (U2OS [2]; [6])	autophagy induction (U2OS [2]; [7])	autophagy induction (U2OS [2]; [8])	autophagy induction (U2OS [2]; [9])	autophagy induction (U2OS [2]; [10])	further results
CN1CCCC(n2nc(Cc3ccc(Cl)cc3)c3ccccc3c2=O)CC1.Cl (stereo unspecified) [AZELASTINE HYDROCHLORIDE]	-1.752%	-3.995%	606.483%	-3.291%	-6.53%	-3.506%	-60.9405%	-3.3303%	-10.1026%	-0.8464%	-60.027%	-3.2037%	28.6217%	20.8368%	11.7893%	4.08%	-10.9736%	-5.743%	-1.742%	-7.358%	autophagy induction (TERT-RPE1; Compound Concentration 0.5 uM, Timepoint 12 hours, 12 h, 0.5 µM): -4.87% and -1.0131%; autophagy induction (TERT-RPE1; Compound Concentration 0.5 uM, Timepoint 24 hours, 24 h, 0.5 µM): -4.869% and -0.0662%; autophagy induction (TERT-RPE1; Compound Concentration 0.5 uM, Timepoint 36 hours, 36 h, 0.5 µM): -3.53% and 2.514%; autophagy induction (TERT-RPE1; Compound Concentration 0.5 uM, Timepoint 60 hours, 60 h, 0.5 µM): -2.083% and 5.845%; autophagy induction (TERT-RPE1; Compound Concentration 2 uM, Timepoint 12 hours, 12 h, 2 µM): 2.2259% and 11.1438%; autophagy induction (TERT-RPE1; Compound Concentration 2 uM, Timepoint 24 hours, 24 h, 2 µM): 1.534% and 9.267%; autophagy induction (TERT-RPE1; Compound Concentration 2 uM, Timepoint 36 hours, 36 h, 2 µM): 3.816% and 8.147%; autophagy induction (TERT-RPE1; Compound Concentration 10 uM, Timepoint 12 hours, 12 h, 10 µM): 7.066% and 3.619%; autophagy induction (TERT-RPE1; Compound Concentration 10 uM, Timepoint 24 hours, 24 h, 10 µM): 11.8407% and 4.087%; autophagy induction (TERT-RPE1; Compound Concentration 10 uM, Timepoint 36 hours, 36 h, 10 µM): 14.8577% and 6.608%; autophagy induction (TERT-RPE1; Compound Concentration 10 uM, Timepoint 60 hours, 60 h, 10 µM): 14.3498% and 13.0687%; autophagy induction (U2OS [2]; [11]): 1.941%; autophagy induction (U2OS [2]; [12]): 10.8687%; autophagy induction (U2OS [2]; [13]): 9.578%; autophagy induction (U2OS [2]; [14]): 17.8748%
CC(C)NCC(O)c1ccc(N)c(C#N)c1 (stereo unspecified) [CIMATEROL]	-8.937%	-2.541%	-0.28%	0.09617%	-0.2215%	-0.03889%	0.3661%	0.1358%	14.0499%	5.045%	2.283%	0.5754%	3.679%	-3.232%	-4.651%	-4.997%	6.803%	-0.3028%	-4.0163%	-10.3459%	autophagy induction (TERT-RPE1; [3]): 2.2717%; autophagy induction (TERT-RPE1; [4]): -0.618%; autophagy induction (TERT-RPE1; [5]): -7.669%; autophagy induction (TERT-RPE1; [6]): -22.0747%; autophagy induction (TERT-RPE1; [7]): 9.171%; autophagy induction (TERT-RPE1; [8]): 5.1156%; autophagy induction (TERT-RPE1; [9]): 0.3735%; autophagy induction (TERT-RPE1; [10]): -11.1579%; autophagy induction (TERT-RPE1; [11]): 13.5821%; autophagy induction (TERT-RPE1; [12]): 11.7661%; autophagy induction (TERT-RPE1; [13]): 4.317%; autophagy induction (TERT-RPE1; [14]): -0.2093%; autophagy induction (U2OS [2]; [11]): 5.959%; autophagy induction (U2OS [2]; [12]): -4.01%; autophagy induction (U2OS [2]; [13]): -7.491%; autophagy induction (U2OS [2]; [14]): -4.33%
